{
  "source": "paper PMC6338552",
  "about": "(Biochemistry, 2018)",
  "target": "JNK1/TMR-JIPtide (Homo sapiens, UniProt P45983)",
  "sequence (P45983 1-384 isoform P45983-2, species assumed)": "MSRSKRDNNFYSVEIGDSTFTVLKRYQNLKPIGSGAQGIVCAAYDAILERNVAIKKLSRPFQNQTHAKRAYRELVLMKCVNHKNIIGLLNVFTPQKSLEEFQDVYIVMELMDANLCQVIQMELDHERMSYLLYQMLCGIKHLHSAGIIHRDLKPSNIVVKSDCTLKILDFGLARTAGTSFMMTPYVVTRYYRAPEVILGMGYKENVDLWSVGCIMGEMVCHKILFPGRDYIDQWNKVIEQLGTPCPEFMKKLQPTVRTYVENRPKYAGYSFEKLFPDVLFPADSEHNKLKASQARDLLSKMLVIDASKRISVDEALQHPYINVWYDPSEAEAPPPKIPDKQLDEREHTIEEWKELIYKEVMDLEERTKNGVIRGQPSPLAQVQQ",
  "type": "binding",
  "details": "relative to apo-JNK1",
  "data": [
    {"smiles": "Nc1ncnc2c1ncn2[C@@H]1O[C@H](COP(=O)(O)OP(=O)(O)OP(=O)(O)O)[C@@H](O)[C@H]1O", "note": "[ATP, adenosine triphosphate]", "values": [
      {"measurement": "effect of ATP-binding site ligand on JNK1 affinity for JIPtide (in words)", "value": "two-fold more tightly"}
    ]}
  ]
}
